Experimental data from US10174053B2, “2 substituted cephem compounds” (Glaxo Group Limited, priority 2012, dated 2019).
Values after ≈ are worked out from the molar mass of the structure shown. Where two headings read alike, the source gives them in different places.

Tests used:
Test in all cases: In vitro antimicrobial activity, MIC by broth microdilution (CLSI)
Type in all cases: cell-based
[1] = test system: E. Coli JMI1890; conditions: for MIC: Escherichia coli, read-out: Minimum Inhibitory Concentration (MIC) E. Coli JMI:1890
Procedure: (§1) Compound (I) of the invention was evaluated for in vitro antimicrobial activity thereof.
(§2) Measurement of Minimum Inhibitory Concentration (MIC: μg/mL) was conducted according to CLSI (Clinical and Laboratory Standards Institute) method, and the amount of bacteria for inoculation was 5×10^5 cfu/mL, and cation-adjusted Iso-Sensitest broth containing human Apo-transferrin was used as a test medium, and the experiment was conducted using broth microdilution method. The bacteria used are listed below.

[2] = test system: A. baumannii JMI7; conditions: for MIC: Acinetobacter baumannii
Procedure: as §1, §2

[3] = test system: K. pneumoniae SR01358; conditions: for MIC: Klebsiella pneumoniae
Procedure: as §1, §2

[4] = test system: A. baumannii JMI2346; conditions: for MIC: Acinetobacter baumannii
Procedure: as §1, §2

[5] = PER-1, TEM-1, ESBL producing strain, 5×10^5 cfu/mL, cation-adjusted Iso-Sensitest broth containing human Apo-transferrin
[6] = JMI7, PER-1, OXA-23, 51, ESBL and OXA-type carbapenemase producing strain, 5×10^5 cfu/mL, cation-adjusted Iso-Sensitest broth containing human Apo-transferrin, read-out: Minimum Inhibitory Concentration (MIC) A. baumannii JMI:7
[7] = SR01358, KPC-2, ESBL and KPC-type carbapenemase producing strain, 5×10^5 cfu/mL, cation-adjusted Iso-Sensitest broth containing human Apo-transferrin, read-out: Minimum Inhibitory Concentration (MIC) K. pneumoniae SR01358
[8] = JMI2346, OXA-51, TEM, ESBL and OXA-type carbapenemase producing strain, 5×10^5 cfu/mL, cation-adjusted Iso-Sensitest broth containing human Apo-transferrin, read-out: Minimum Inhibitory Concentration (MIC) A. baumannii JMI:2346

Structure (SMILES)	MIC [1, 5]	MIC [2, 6]	MIC [3, 7]	MIC [4, 8]	other results
C[C@@H]1S[C@@H]2[C@H](NC(=O)/C(=N\OC(C)(C)C(=O)O)c3csc(N)n3)C(=O)N2C(C(=O)[O-])=C1C[N+]12CCC(Cn3ncc4cc(O)c(O)cc4c3=O)(CC1)CC2 [Compound I-124]	0.125 µg/mL (≈ 0.16 µM)	0.5 µg/mL (≈ 0.639 µM)	≤ 0.031 µg/mL	2 µg/mL (≈ 2.55 µM)	–
C[C@@H]1S[C@@H]2[C@H](NC(=O)/C(=N\OC(C)(C)C(=O)[O-])c3csc(N)n3)C(=O)N2C(C(=O)O)=C1C[N+]12CCC(Cn3[nH]c(=O)c4cc(O)c(O)cc4c3=O)(CC1)CC2 [Compound I-122]	0.25 µg/mL (≈ 0.313 µM)	0.5 µg/mL (≈ 0.626 µM)	≤ 0.031 µg/mL	2 µg/mL (≈ 2.5 µM)	–
C[C@@H]1S[C@@H]2[C@H](NC(=O)/C(=N\OC(C)(C)C(=O)[O-])c3csc(N)n3)C(=O)N2C(C(=O)O)=C1C[N@+]1(C)[C@@H]2CC[C@H]1C[C@@H](NC(=O)C(=O)c1ccc(O)c(O)c1Cl)C2 [Compound I-20]	–	–	–	–	MIC [1]: 0.063 µg/mL (≈ 0.0768 µM); MIC ([2]; JMI7, read-out: Minimum Inhibitory Concentration (MIC) A. baumannii JMI:7): 0.125 µg/mL (≈ 0.152 µM); MIC ([3]; SR01358, read-out: Minimum Inhibitory Concentration (MIC) K. pneumoniae SR01358): ≤ 0.031 µg/mL; MIC ([4]; JMI2346, read-out: Minimum Inhibitory Concentration (MIC) A. baumannii JMI:2346): 0.5 µg/mL (≈ 0.61 µM)
C[C@@H]1S[C@@H]2[C@H](NC(=O)/C(=N\OC(C)(C)C(=O)[O-])c3csc(N)n3)C(=O)N2C(C(=O)O)=C1C[N+]12CCC(CNC(=O)/C(=N\O)c3ccc(O)c(O)c3)(CC1)CC2 [Compound I-92]	2 µg/mL (≈ 2.5 µM)	4 µg/mL (≈ 4.99 µM)	0.125 µg/mL (≈ 0.156 µM)	16 µg/mL (≈ 20 µM)	–
C[C@@H]1S[C@@H]2[C@H](NC(=O)/C(=N\OC(C)(C)C(=O)[O-])c3csc(N)n3)C(=O)N2C(C(=O)O)=C1C[N@+]1(C)[C@@H]2CC[C@H]1C[C@@H](NC(=O)c1ccc(O)c(O)c1Cl)C2 [Compound I-54]	0.125 µg/mL (≈ 0.158 µM)	0.5 µg/mL (≈ 0.631 µM)	≤ 0.031 µg/mL	1 µg/mL (≈ 1.26 µM)	–
C[C@@H]1S[C@@H]2[C@H](NC(=O)/C(=N\O[C@@H](CC(=O)[O-])C(=O)[O-])c3csc(N)n3)C(=O)N2C(C(=O)[O-])=C1C[N@+]12CCC[C@H]1CN(C(=O)C(=O)c1cc(O)c(O)c(Cl)c1)CC2.[Na+].[Na+] [Compound I-11]	2 µg/mL	2 µg/mL	0.063 µg/mL	16 µg/mL	–
C[C@@H]1S[C@@H]2[C@H](NC(=O)/C(=N\OC(C)(C)C(=O)[O-])c3csc(N)n3)C(=O)N2C(C(=O)[O-])=C1C[N+]12CCC(CNN3C(=O)c4cc(O)c(O)c(Cl)c4C3=O)(CC1)CC2.[Na+] [Compound I-114]	0.125 µg/mL	0.5 µg/mL	≤ 0.031 µg/mL	4 µg/mL	–
C[C@@H]1S[C@@H]2[C@H](NC(=O)/C(=N\OC(C)(C)C(=O)[O-])c3csc(N)n3)C(=O)N2C(C(=O)[O-])=C1C[N+]12CCC(CNC(=O)C(=O)c3ccc(O)c(O)c3)(CC1)CC2.[Na+] [Compound I-107]	0.5 µg/mL	2 µg/mL	≤ 0.031 µg/mL	4 µg/mL	–
CO/N=C(\C(=O)NCC12CC[N+](CC3=C(COO)N4C(=O)[C@@H](NC(=O)/C(=N\OC(C)(C)C(=O)[O-])c5csc(N)n5)[C@H]4S[C@H]3C)(CC1)CC2)c1cc(O)c(O)c(F)c1 [Compound I-132]	–	–	–	–	Minimum Inhibitory Concentration (MIC) E. Coli JMI:1890 [1, 5]: 0.25 µg/mL; Minimum Inhibitory Concentration (MIC) A. baumannii JMI:7 ([2]; PER-1, OXA-23, 51, ESBL and OXA-type carbapenemase producing strain, 5×10^5 cfu/mL, cation-adjusted Iso-Sensitest broth containing human Apo-transferrin): 1 µg/mL; Minimum Inhibitory Concentration (MIC) K. pneumoniae SR01358 ([3]; KPC-2, ESBL and KPC-type carbapenemase producing strain, 5×10^5 cfu/mL, cation-adjusted Iso-Sensitest broth containing human Apo-transferrin): ≤0.031 µg/mL; Minimum Inhibitory Concentration (MIC) A. baumannii JMI:2346 ([4]; OXA-51, TEM, ESBL and OXA-type carbapenemase producing strain, 5×10^5 cfu/mL, cation-adjusted Iso-Sensitest broth containing human Apo-transferrin): 4 µg/mL
C[C@@H]1S[C@@H]2[C@H](NC(=O)/C(=N\OC(C)(C)C(=O)[O-])c3csc(N)n3)C(=O)N2C(C(=O)[O-])=C1C[N+]1(C)[C@@H]2CC[C@H]1C[C@@H](N1C(=O)c3cc(O)c(O)cc3C1=O)C2.[Na+] (stereo partly shown) [Compound I-77]	0.25 µg/mL	0.5 µg/mL	≤ 0.031 µg/mL	1 µg/mL	–
C[C@@H]1S[C@@H]2[C@H](NC(=O)/C(=N\OC(C)(C)C(=O)[O-])c3csc(N)n3)C(=O)N2C(C(=O)O)=C1C[N+]1(CCON2C(=O)c3cc(O)c(O)cc3C2=O)CCCC1 [Compound I-27]	0.5 µg/mL (≈ 0.646 µM)	0.5 µg/mL (≈ 0.646 µM)	≤ 0.031 µg/mL	4 µg/mL (≈ 5.17 µM)	–
C[C@@H]1S[C@@H]2[C@H](NC(=O)/C(=N\OC(C)(C)C(=O)[O-])c3csc(N)n3)C(=O)N2C(C(=O)[O-])=C1C[N+]12CCC(CNC(=O)c3cc(O)c(O)c(F)c3)(CC1)CC2.[Na+] [Compound I-72]	0.125 µg/mL	1 µg/mL	≤ 0.031 µg/mL	4 µg/mL	–

Further lines, with some results ahead:

MIC [1, 5]	MIC [2, 6]	MIC [3, 7]	MIC [4, 8]	Structure (SMILES)	other results
≤ 0.031 µg/mL	0.5 µg/mL (≈ 0.65 µM)	≤ 0.031 µg/mL	2 µg/mL (≈ 2.6 µM)	C[C@@H]1S[C@@H]2[C@H](NC(=O)/C(=N\OC(C)(C)C(=O)O)c3csc(N)n3)C(=O)N2C(C(=O)[O-])=C1C[N+]12CCC(Cn3cnc4cc(O)c(O)cc4c3=O)(CC1)C2 [Compound I-164, (4S,6R,7R)-7-((Z)-2-(2-aminothiazol-4-yl)-2-(((2-carboxypropan-2-yl)oxy)imino)acetamido)-3-((4-((6,7-dihydroxy-4-oxoquinazolin-3(4H)-yl)methyl)-1-azabicyclo[2.2.1]heptan-1-ium-1-yl)methyl)-4-methyl-8-oxo-5-thia-1-azabicyclo[4.2.0]oct-2-ene-2-carboxylate]	–
≤ 0.031 µg/mL	0.5 µg/mL (≈ 0.622 µM)	≤ 0.031 µg/mL	1 µg/mL (≈ 1.24 µM)	C[C@@H]1S[C@@H]2[C@H](NC(=O)/C(=N\OC(C)(C)C(=O)O)c3csc(N)n3)C(=O)N2C(C(=O)[O-])=C1C[N+]12CCC(Cn3cnc4cc(O)c(O)c(Cl)c4c3=O)(CC1)C2 [Compound I-165, (4S,6R,7R)-7-((Z)-2-(2-aminothiazol-4-yl)-2-(((2-carboxypropan-2-yl)oxy)imino)acetamido)-3-((4-((5-chloro-6,7-dihydroxy-4-oxoquinazolin-3(4H)-yl)methyl)-1-azabicyclo[2.2.1]heptan-1-ium-1-yl)methyl)-4-methyl-8-oxo-5-thia-1-azabicyclo[4.2.0]oct-2-ene-2-carboxylate]	–
0.5 µg/mL	2 µg/mL	≤ 0.031 µg/mL	8 µg/mL	C[C@@H]1S[C@@H]2[C@H](NC(=O)/C(=N\OC(C)(C)C(=O)[O-])c3csc(N)n3)C(=O)N2C(C(=O)[O-])=C1C[N+]12CCC[C@H]1CN(C(=O)c1cc(O)c(O)c(F)c1)CC2.[Na+] (stereo partly shown) [Compound I-68]	–
0.5 µg/mL (≈ 0.648 µM)	0.5 µg/mL (≈ 0.648 µM)	0.063 µg/mL (≈ 0.0816 µM)	2 µg/mL (≈ 2.59 µM)	C[C@@H]1S[C@@H]2[C@H](NC(=O)/C(=N\OC(C)(C)C(=O)[O-])c3csc(N)n3)C(=O)N2C(C(=O)O)=C1C[N+]1(CCN2C(=O)c3ccc(O)c(O)c3C2=O)CCCCC1 [Compound I-42]	–
≤ 0.031 µg/mL	0.25 µg/mL (≈ 0.291 µM)	0.063 µg/mL (≈ 0.0733 µM)	0.5 µg/mL (≈ 0.582 µM)	C[C@@H]1S[C@@H]2[C@H](NC(=O)/C(=N\OC(C)(C)C(=O)O)c3csc(N)n3)C(=O)N2C(C(=O)[O-])=C1C[N+]12CCC(CC1)N(C(=O)c1cn(C)c3cc(O)c(O)c(Cl)c3c1=O)CC2 [Compound I-160, (4S,6R,7R)-7-((Z)-2-(2-aminothiazol-4-yl)-2-(((2-carboxypropan-2-yl)oxy)imino)acetamido)-3-((4-(5-chloro-6,7-dihydroxy-1-methyl-4-oxo-1,4-dihydroquinoline-3-carbonyl)-1,4-diazabicyclo[3.2.2]nonan-1-ium-1-yl)methyl)-4-methyl-8-oxo-5-thia-1-azabicyclo[4.2.0]oct-2-ene-2-carboxylate]	–
0.125 µg/mL (≈ 0.161 µM)	0.5 µg/mL (≈ 0.642 µM)	0.063 µg/mL (≈ 0.0809 µM)	1 µg/mL (≈ 1.28 µM)	C[C@@H]1S[C@@H]2[C@H](NC(=O)/C(=N\OC(C)(C)C(=O)[O-])c3csc(N)n3)C(=O)N2C(C(=O)O)=C1C[N+]12CCC(CNC(=O)c3ccc(O)c(O)c3Cl)(CC1)C2 [Compound I-100]	–
0.063 µg/mL (≈ 0.0819 µM)	0.25 µg/mL (≈ 0.325 µM)	≤ 0.031 µg/mL	0.5 µg/mL (≈ 0.65 µM)	C[C@@H]1S[C@@H]2[C@H](NC(=O)/C(=N\OC(C)(C)C(=O)O)c3csc(N)n3)C(=O)N2C(C(=O)[O-])=C1C[N+]12CCC(Cn3ncc4cc(O)c(O)cc4c3=O)(CC1)C2 [Compound I-126]	–
0.25 µg/mL (≈ 0.326 µM)	2 µg/mL (≈ 2.61 µM)	0.25 µg/mL (≈ 0.326 µM)	4 µg/mL (≈ 5.22 µM)	C[C@H]1S[C@@H]2[C@H](NC(=O)/C(=N\OC(C)(C)C(=O)[O-])c3csc(N)n3)C(=O)N2C(C(=O)O)=C1C[N+]1(CCNC(=O)c2ccc(O)c(O)c2Cl)CCCC1 [Compound I-53]	–
2 µg/mL	1 µg/mL	≤ 0.031 µg/mL	16 µg/mL	C[C@@H]1S[C@@H]2[C@H](NC(=O)/C(=N\OC(C)(C)C(=O)[O-])c3csc(N)n3)C(=O)N2C(C(=O)[O-])=C1C[N+]1(CCNC(=O)C(=O)c2cc(O)c(O)c(F)c2)CCCC1.[Na+] [Compound I-84]	–
0.5 µg/mL	1 µg/mL	0.063 µg/mL	8 µg/mL	C[C@@H]1S[C@@H]2[C@H](NC(=O)/C(=N\OC(C)(C)C(=O)[O-])c3csc(N)n3)C(=O)N2C(C(=O)[O-])=C1C[N+]1(CCNC(=O)C(=O)c2ccc(O)c(O)c2)CCCC1.[Na+] [Compound I-109]	–
